Laboratory results reported in ChEMBL document CHEMBL3272278, “Electronic factors in the structure-activity relationship of some 1,4-benzodiazepin-2-ones” (1977).
Active and inactive are the calls of the source. The rule behind the calls is not given here.

Experiments:
Assay type in all cases: functional
Mus musculus [1] = species on record: Mus musculus; test: Taming activity in mouse assessed as suppression of electrical current-induced aggressive behavior by foot-shock test
Mus musculus [2] = species on record: Mus musculus; test: Sedative activity in mouse
Mus musculus [3] = species on record: Mus musculus; test: Anticonvulsion activity in mouse assessed as protection against pentylenetetrazole-induced convulsion
Mus musculus [4] = species on record: Mus musculus; test: Muscle relaxant activity in mouse
Felis catus = species on record: Felis catus; test: Muscle relaxant activity in cat suspended by scruff of neck assessed as relaxation of body and hind legs

Row | Compound | log(1/MED) (Mus musculus [1]) | log(1/ED50) (Mus musculus [2]) | Activity (Mus musculus [3]) | log(1/ED50) (Mus musculus [4]) | log(1/MED) (Felis catus) | log(1/ED50) (Mus musculus [3]) | Activity (Mus musculus [1]) | Activity (Mus musculus [2]) | Activity (Mus musculus [4])
1 | Cc1cc(C)c2c(c1)C(c1ccccc1)=NCC(=O)N2 | 0.4216 | -0.2316 | inactive | -0.2316 |  |  |  |  | 
2 | CN1C(=O)CN=C(c2ccccc2Cl)c2cc([N+](=O)[O-])ccc21 [RO-054082] | 2.1198 | 1.0407 |  | 1.0407 | 3.8188 | 3.4386 |  |  | 
3 | CN(C)c1ccc2c(c1)C(c1ccccc1)=NCC(=O)N2C | 0.8648 | 0.2908 |  | 0.2908 | 2.4669 | 1.6887 |  |  | 
4 | CN(C)c1ccc2c(c1)C(c1ccccc1)=NCC(=O)N2 |  |  |  |  | 1.4456 | 0.8224 | inactive | inactive | inactive
5 | Cc1cc([N+](=O)[O-])cc2c1NC(=O)CN=C2c1ccccc1 | 1.1688 | 1.1688 |  | 1.1688 | 2.7709 | 1.5613 |  |  | 
6 | O=C1CN=C(c2ccccc2)c2cc(C(F)(F)F)ccc2N1 [RO-052904] | 1.4829 | 1.4829 |  | 1.4829 | 3.4829 | 2.4829 |  |  | 
7 | CN1C(=O)CN=C(c2ccccc2F)c2cc(F)ccc21 |  | 0.1457 |  | 0.1457 | 1.7574 | 0.3325 | inactive |  | 
8 | O=C1CN=C(c2cccc(F)c2)c2cc(Cl)ccc2N1 | 0.858 | 0.159 |  | 0.159 | 2.159 | 1.8368 |  |  | 
9 | CN1C(=O)CN=C(c2ccccc2C(F)(F)F)c2cc([N+](=O)[O-])ccc21 | 1.8609 | 0.8609 |  | 0.8609 | 3.5599 | 2.7148 |  |  | 
10 | O=C1CN=C(c2ccccc2[N+](=O)[O-])c2cc([N+](=O)[O-])ccc2N1 | 0.9112 |  |  |  |  | 2.9691 |  | inactive | inactive
11 | C[S+]([O-])c1ccc2c(c1)C(c1ccccc1)=NCC(=O)N2 (stereo unspecified) |  | 0.2313 |  | 0.2313 | 1.8722 | 1.0764 | inactive |  | 
12 | O=C1CN=C(c2ccccc2F)c2cc(Cl)ccc2N1 [N-DESALKYL-2-OXOQUAZEPAM] | 1.7611 | 0.858 |  | 0.858 | 3.7611 | 3.4601 |  |  | 
13 | O=C1CN=C(c2ccccc2C(F)(F)F)c2cc(C(F)(F)F)ccc2N1 | 1.2695 | 1.0934 |  | 1.0934 | 2.8716 | 1.9685 |  |  | 
14 | CCSc1ccc2c(c1)C(c1ccccc1)=NCC(=O)N2 |  |  |  |  |  | 0.2702 | inactive |  | 
15 | O=C1CN=C(c2ccccc2)c2cc(Br)ccc2N1 | 1.1971 | 1.1002 |  | 1.1002 | 2.7992 | 2.1971 |  |  | 
16 | COc1ccc(C2=NCC(=O)Nc3ccc(Cl)cc32)cc1 |  |  |  |  |  | -0.4253 | inactive | inactive | inactive
17 | O=C1CN=C(c2ccccc2Cl)c2cc([N+](=O)[O-])ccc2N1 [CLONAZEPAM] | 1.1979 |  |  |  | 3.8 | 3.2948 |  | inactive | inactive
18 | COc1cccc(C2=NCC(=O)Nc3ccc(Cl)cc32)c1 |  |  |  |  |  | 2.2225 | inactive | inactive | inactive
19 | COc1ccccc1C1=NCC(=O)Nc2ccc(Cl)cc21 | 0.4778 | 0.0007 |  | 0.0007 | 2.4778 | 1.6027 |  |  | 

Row | Compound | log(1/MED) (Mus musculus [1]) | log(1/ED50) (Mus musculus [2]) | Activity (Mus musculus [3]) | log(1/ED50) (Mus musculus [4]) | log(1/MED) (Felis catus) | log(1/ED50) (Mus musculus [3]) | Activity (Mus musculus [1]) | Activity (Mus musculus [2]) | Activity (Mus musculus [4])
20 | O=C1CN=C(c2ccccc2)c2cc(F)ccc2N1 [RO-053061] | 0.4048 | 0.2287 | inactive | 0.2287 | 1.8028 |  |  |  | 
21 | O=C1CN=C(c2ccccc2)c2cc(Cl)cc(Cl)c2N1 |  | 0.3081 |  | 0.3081 | 2.1831 | 1.5651 | inactive |  | 
22 | O=C1CN=C(c2ccccc2Br)c2cc(Cl)ccc2N1 | 1.8443 | 0.8443 |  | 0.8443 | 4.0661 | 2.7651 |  |  | 
23 | COc1cc2c(cc1Br)C(c1ccccc1)=NCC(=O)N2 | 0.6346 | 0.3616 |  | 0.3616 |  | 1.6626 |  |  | 
24 | O=C1CN=C(c2ccccc2)c2ccc(Cl)cc2N1 |  |  |  |  |  | -0.0917 | inactive | inactive | inactive
25 | CN1C(=O)CN=C(c2ccccc2)c2cc(C#N)ccc21 | 1.7404 | 1.1382 |  | 1.1382 | 2.7404 | 2.4393 |  |  | 
26 | CSc1ccc2c(c1)C(c1ccccc1)=NCC(=O)N2 | 1.1493 | 0.2073 |  | 0.2073 | 2.1493 | 1.1493 |  |  | 
27 | CN1C(=O)CN=C(c2ccccc2)c2cc(Cl)ccc21 [DIAZEPAM] | 1.454 | 0.9769 |  | 0.9769 | 3.153 | 2.3079 |  |  | 
28 | Cc1ccc2c(c1)C(c1ccccc1)=NCC(=O)N2 |  |  |  |  |  | 0.1549 | inactive | inactive | inactive
29 | Cc1cccc(C2=NCC(=O)Nc3ccc(Cl)cc32)c1 |  |  |  |  |  | 0.8519 | inactive | inactive | inactive
30 | CN1C(=O)CN=C(c2ccccc2Cl)c2cc(Cl)ccc21 | 1.5037 | 0.9016 |  | 0.9016 | 3.5037 | 2.8804 |  |  | 
31 | N#Cc1ccc2c(c1)C(c1ccccc1)=NCC(=O)N2 | 0.8146 | 0.5416 |  | 0.5416 | 2.7177 | 2.3027 |  |  | 
32 | O=C1CN=C(c2ccccc2)c2cccc([N+](=O)[O-])c2N1 |  | -0.2503 | inactive | -0.2503 |  |  | inactive |  | 
33 | O=C1CN=C(c2cccc([N+](=O)[O-])c2)c2cc([N+](=O)[O-])ccc2N1 |  | -0.0888 |  | -0.0888 |  | 0.8142 | inactive |  | 
34 | O=C1CN=C(c2ccccc2)c2ccc(C(F)(F)F)cc2N1 |  | -0.1703 |  | -0.1703 |  |  | inactive |  | 
35 | O=C1CN=C(c2ccccc2)c2c(Cl)cccc2N1 |  |  |  |  |  | 0.1311 | inactive | inactive | inactive
36 | CS(=O)(=O)c1ccc2c(c1)C(c1ccccc1)=NCC(=O)N2 |  |  |  |  |  | 0.2811 | inactive | inactive | inactive
37 | CN1C(=O)CN=C(c2ccc(Cl)cc2)c2cc(Cl)ccc21 [RO-54864] |  | 0.5037 | inactive | 0.5037 |  |  | inactive |  | 
38 | Cc1cc2c(cc1C)C(c1ccccc1)=NCC(=O)N2 |  |  |  |  |  | 0.2978 | inactive | inactive | inactive
